Data on 14 compounds can be found in EP0540676B1, “PEPTIDE COMPOUNDS HAVING GROWTH HORMONE RELEASING ACTIVITY” (POLYGEN HOLDING CORPORATION, priority 1990, dated 1994).

SMILES strings stand for the structures. Values joined by “and” are separate entries in the source; they are usually repeats but may differ in a detail not shown here. Equal entries are not always repeated. Where a SMILES comes first, the peptide text is derived from it. [ ]: non-standard residue; d: D form.

The assay concerns GH Release. As to the kind of experiment: In vivo GH release in pentobarbital anesthetized rats (serum GH by RIA). The following applies: for GH Released Serum GH ng/ml ± SEM (N=6): Table 6, pentobarbital anesthetized rats (table title); for GH Released Serum GH ng/ml ± SEM (N=6) / GH Released by Compound in Column A: sacrificed 10 minutes after final injection; for activity compared with peptides having another residue in the A₂ position: in words, summary of Tables 3, 4, 5 and 6, rats; for GH Released by Compound in Column A: Table 4, pentobarbital anesthetized rats; for GH Released by Compound in Column A / GH Released: mean ± SEM, six rats; for GH Released: Table 5, anesthetized rats. As for the experimental part: Immature female Sprague-Dawley rats were obtained from the Charles River Laboratories (Wilmington, MA). After arrival they were housed at 25 °C with a 14:10 hour light:dark cycle. Water and Purina rat chow were available ad libitum. Pups were kept with their mothers until 21 days of age.
Twenty-six day old rats, six rats per treatment group, were anesthetized interperitoneally with 50 mg/Kg of pentobarbital 20 minutes prior to i.v. treatment with peptide. Normal saline with 0.1% gelatin was the vehicle for intravenous (i.v.) injections of the peptides. The anesthetized rats, weighing 55-65 grams, were injected i.v. with the quantity of growth hormone releasing compounds indicated in Tables 3, 4 and 5. Injection was made as a 0.2 mL solution into the jugular vein.
All animals were sacrificed by guillotine 10 minutes after the final test injection (see Tables 3 and 4). Trunk blood for the determination of blood GH levels was collected following decapitation. After allowing the blood to clot, it was centrifuged and the serum was separated from the clot. Serum was kept fozen until the day of sampling for radioimmunasay (RIA) determination of growth hormone levels according to the following procedure, as developed by the National Institute of Arthritis, Diabetes and Digestive and Kidney Diseases (NIADDK).
Reagents are generally added to the RIA analysis tubes at a single sitting, at refrigerator temperature (about 4 °C) in the following sequence: • (a) buffer, • (b) "cold" (i.e., non-radioactive) standard or unknown serum sample to be analyzed, • (c) radio-iodinated growth hormone antigen, and • (d) growth hormone antiserum. Reagent addition is generally carried out so that there is achieved a final RIA tube dilution of about 1:30,000 (antiserum to total liquid volume; vol:vol).
The mixed reagents are then typically incubated at room temperature (about 25 °C) for about 24 hours prior to addition of a second antibody (e.g., goat or rabbit anti-monkey gamma globulin serum) which binds to and causes precipitation of the complexed growth hormone anti serum. Precipitated contents of the RIA tubes are then analyzed for the number of counts in a specified period of time in a gamma scintillation counter. A standard curve is prepared by plotting number of radioactive counts versus growth hormone (GH) level. GH levels of unknowns are then determined by reference to the standard curve.
Serum GH was measured by RIA with reagents provided by the National Hormone and Pituitary Program.
Serum levels in Tables 3, 4, 5 and 6 are recorded in ng/mL in terms of the rat GH standard of 0.61 International Units/mg (IU/mg). Data is recorded as the mean +/- standard error of the mean (SEM). Statistical analysis was performed with Student's t-test. NS means the difference was not statistically significant. In Tables 3, 4, 5 and 6 the results shown are the average of studies with six rats.

Where [1] appears, read: Total Dose 0.3 µg, several experiments with different controls.
Where [2] appears, read: Total Dose 1.0 µg, several experiments with different controls.

Consider `C[C@H](N)C(=O)N[C@H](Cc1ccc2ccccc2c1)C(=O)N[C@@H](C)C(=O)N[C@@H](Cc1c[nH]c2ccccc12)C(=O)N[C@H](Cc1ccccc1)C(=O)N[C@@H](CCCCN)C(N)=O` [Ala-DβNal-Ala-Trp-DPhe-Lys-NH₂] (HELM PEPTIDE1{A.[O=C([C@@H](Cc1ccc2ccccc2c1)N[*:1])[*:2]].A.W.[dF].K.[am]}$$$$V2.0), for which the “GH Released Serum GH ng/ml ± SEM (N=6)” value is, setting by setting: under setting [1], 363 ± 73 ng/mL; under setting [2], 1450 ± 294 ng/mL; (Total Dose 3.0 µg) 2072 ± 208 ng/mL; (Total Dose 10.0 µg) 2698 ± 369 ng/mL.
As to `C[C@H](N)C(=O)N[C@@H](Cc1c[nH]cn1)C(=O)N[C@H](Cc1ccc2ccccc2c1)C(=O)N[C@@H](C)C(=O)N[C@@H](Cc1c[nH]c2ccccc12)C(=O)N[C@H](Cc1ccccc1)C(=O)N[C@@H](CCCCN)C(N)=O` [Ala-His-DβNal-Ala-Trp-DPhe-Lys-NH₂, Ala-His-D^βNal-Ala-Trp-DPhe-Lys-NH₂] (HELM PEPTIDE1{A.H.[O=C([C@@H](Cc1ccc2ccccc2c1)N[*:1])[*:2]].A.W.[dF].K.[am]}$$$$V2.0), the “activity compared with peptides having another residue in the A₂ position” value is reported as “more active than the equivalent DTrp compound”. The “GH Released Serum GH ng/ml ± SEM (N=6)” value (Total Dose 0.1 µg, several experiments with different controls) is 822 ± 243 ng/mL and 610 ± 90 ng/mL. Further, the “GH Released Serum GH ng/ml ± SEM (N=6)” value under setting [1] was 1418 ± 302 ng/mL and 1746 ± 318 ng/mL and 1549 ± 292 ng/mL and 1140 ± 187 ng/mL. Under setting [2], the “GH Released Serum GH ng/ml ± SEM (N=6)” value was 2201 ± 269 ng/mL and 2610 ± 176 ng/mL and 2180 ± 284 ng/mL and 2909 ± 257 ng/mL. Also, the “GH Released Serum GH ng/ml ± SEM (N=6)” value (Total Dose 3.0 µg) turned out to be 3686 ± 436 ng/mL.
`C[C@H](N)C(=O)N[C@@H](Cc1c[nH]cn1)C(=O)N[C@H](Cc1c[nH]cn1)C(=O)N[C@@H](C)C(=O)N[C@@H](Cc1c[nH]c2ccccc12)C(=O)N[C@H](Cc1ccccc1)C(=O)N[C@@H](CCCCN)C(N)=O` [AlaHisDHisAlaTrpDPheLysNH₂] (HELM PEPTIDE1{A.H.[dH].A.W.[dF].K.[am]}$$$$V2.0): where the note is “Total Dose .3 µg i.v.”, the “GH Released by Compound in Column A” value worked out at 268 ± 54 ng/mL.
For `C[C@H](N)C(=O)N[C@@H](Cc1c[nH]cn1)C(=O)N[C@H](Cc1ccccc1)C(=O)N[C@@H](C)C(=O)N[C@@H](Cc1c[nH]c2ccccc12)C(=O)N[C@H](Cc1ccccc1)C(=O)N[C@@H](CCCCN)C(N)=O` [AlaHisDPheAlaTrpDPheLysNH₂] (HELM PEPTIDE1{A.H.[dF].A.W.[dF].K.[am]}$$$$V2.0), the “GH Released by Compound in Column A” value (Total Dose .3 µg i.v.) is listed as 616 ± 74 ng/mL.
Same read-out and setting: to `C[C@H](N)C(=O)N[C@@H](Cc1c[nH]cn1)C(=O)N1CCC[C@@H]1C(=O)N[C@@H](C)C(=O)N[C@@H](Cc1c[nH]c2ccccc12)C(=O)N[C@H](Cc1ccccc1)C(=O)N[C@@H](CCCCN)C(N)=O` [AlaHisDProAlaTrpDPheLysNH₂] (HELM PEPTIDE1{A.H.[dP].A.W.[dF].K.[am]}$$$$V2.0) belongs 262 ± 51 ng/mL.
As for `C[C@H](N)C(=O)N[C@@H](Cc1c[nH]cn1)C(=O)N[C@H](Cc1c[nH]c2ccccc12)C(=O)N[C@@H](C)C(=O)N[C@@H](Cc1c[nH]c2ccccc12)C(=O)N[C@H](Cc1ccccc1)C(=O)N[C@@H](CCCCN)C(N)=O` [AlaHisDTrpAlaTrpDPheLysNH₂] (HELM PEPTIDE1{A.H.[dW].A.W.[dF].K.[am]}$$$$V2.0), the “GH Released by Compound in Column A” value (Total Dose .3 µg i.v.) came to 901 ± 21 ng/mL.
Regarding `C[C@H](NC(=O)[C@@H](N)Cc1c[nH]cn1)C(=O)N[C@H](Cc1c[nH]c2ccccc12)C(=O)N[C@@H](C)C(=O)N[C@@H](Cc1c[nH]c2ccccc12)C(=O)N[C@H](Cc1ccccc1)C(=O)N[C@@H](CCCCN)C(N)=O` [His-Ala-DTrp-Ala-Trp-DPhe-Lys-NH₂] (HELM PEPTIDE1{H.A.[dW].A.W.[dF].K.[am]}$$$$V2.0), the “GH Released” value runs as follows: (Total Dose 1.0 µg i.v.) 830 ± 103 ng/mL; (Total Dose 3.0 µg i.v.) 2588 ± 341 ng/mL; (Total Dose .3 µg i.v.) 261 ± 32 ng/mL.
As for `C[C@H](NC(=O)[C@@H](CC(=O)O)NC(=O)[C@@H](N)Cc1c[nH]cn1)C(=O)N[C@@H](Cc1c[nH]c2ccccc12)C(=O)N[C@H](Cc1ccccc1)C(=O)N[C@@H](CCCCN)C(N)=O` [His-DAsp-Ala-Trp-DPhe-Lys-NH₂] (HELM PEPTIDE1{H.[dD].A.W.[dF].K.[am]}$$$$V2.0), the “GH Released” value (Total Dose 1.0 µg i.v.) was found to be 154 ± 63 ng/mL; the “GH Released” value (Total Dose 3.0 µg i.v.) came out at 155 ± 34 ng/mL; the “GH Released” value (Total Dose 10.0 µg i.v.) is given as 163 ± 44 ng/mL; the “GH Released” value (Total Dose 30.0 µg i.v.) was determined as 224 ± 62 ng/mL; the “GH Released” value (Total Dose 100.0 µg i.v.) is 178 ± 83 ng/mL.
For the compound `CSC[C@@H](NC(=O)[C@@H](N)Cc1c[nH]cn1)C(=O)N[C@@H](C)C(=O)N[C@@H](Cc1c[nH]c2ccccc12)C(=O)N[C@H](Cc1ccccc1)C(=O)N[C@@H](CCCCN)C(N)=O` [His-DCys(SMe)-Ala-Trp-DPhe-Lys-NH₂] (H-H[dC](Me)AW[dF]K-NH2), the “GH Released” value runs as follows: (Total Dose 1.0 µg i.v.) 193 ± 28 ng/mL; (Total Dose 3.0 µg i.v.) 180 ± 34 ng/mL; (Total Dose .3 µg i.v.) 178 ± 28 ng/mL.
For the compound `C[C@H](NC(=O)[C@@H](Cc1ccccc1)NC(=O)[C@H](Cc1c[nH]c2ccccc12)NC(=O)[C@H](C)NC(=O)[C@@H](Cc1c[nH]c2ccccc12)NC(=O)[C@@H](N)Cc1c[nH]cn1)C(=O)N[C@@H](CCCCN)C(N)=O` [His-DTrp-Ala-Trp-DPhe-Ala-Lys-NH₂] (HELM PEPTIDE1{H.[dW].A.W.[dF].A.K.[am]}$$$$V2.0), the “GH Released” value is, setting by setting: (Total Dose 1.0 µg i.v.) 1965 ± 366 ng/mL; (Total Dose 3.0 µg i.v.) 4553 ± 670 ng/mL; (Total Dose .1 µg i.v.) 420 ± 105 ng/mL; (Total Dose .3 µg i.v.) 900 ± 163 ng/mL.
Turning to `C[C@H](NC(=O)[C@@H](Cc1c[nH]c2ccccc12)NC(=O)[C@@H](N)Cc1c[nH]cn1)C(=O)N[C@@H](Cc1c[nH]c2ccccc12)C(=O)N[C@H](Cc1ccccc1)C(=O)N[C@@H](CCCCN)C(N)=O` [His-DTrp-Ala-Trp-DPhe-Lys-NH₂] (HELM PEPTIDE1{H.[dW].A.W.[dF].K.[am]}$$$$V2.0), the “GH Released” value reads like this: (Total Dose 1.0 µg i.v.) 1531 ± 303 ng/mL; (Total Dose 3.0 µg i.v.) 2349 ± 267 ng/mL; (Total Dose .1 µg i.v.) 512 ± 43 ng/mL; (Total Dose .3 µg i.v.) 566 ± 114 ng/mL.
On the same counts, the results for `C[C@H](NC(=O)[C@@H](Cc1cccc2ccccc12)NC(=O)[C@@H](N)Cc1c[nH]cn1)C(=O)N[C@@H](Cc1c[nH]c2ccccc12)C(=O)N[C@H](Cc1ccccc1)C(=O)N[C@@H](CCCCN)C(N)=O` [His-D^αNal-Ala-Trp-DPhe-Lys-NH₂] (HELM PEPTIDE1{H.[O=C([C@@H](Cc1cccc2ccccc12)N[*:1])[*:2]].A.W.[dF].K.[am]}$$$$V2.0) are 1130 ± 179 ng/mL, 2319 ± 139 ng/mL, 280 ± 70 ng/mL and 439 ± 122 ng/mL.
Turning to `C[C@H](NC(=O)[C@@H](Cc1ccccc1)NC(=O)[C@H](Cc1c[nH]c2ccccc12)NC(=O)[C@H](C)NC(=O)[C@@H](Cc1ccc2ccccc2c1)NC(=O)[C@@H](N)Cc1c[nH]cn1)C(=O)N[C@@H](CCCCN)C(N)=O` [His-D^βNal-Ala-Trp-DPhe-Ala-Lys-NH₂] (HELM PEPTIDE1{H.[O=C([C@@H](Cc1ccc2ccccc2c1)N[*:1])[*:2]].A.W.[dF].A.K.[am]}$$$$V2.0), the “GH Released” value is given as 1593 ± 359 ng/mL (Total Dose 1.0 µg i.v.), 3337 ± 583 ng/mL (Total Dose 3.0 µg i.v.), 484 ± 89 ng/mL (Total Dose .1 µg i.v.) and 971 ± 241 ng/mL (Total Dose .3 µg i.v.).
Consider `C[C@H](NC(=O)[C@@H](Cc1ccc2ccccc2c1)NC(=O)[C@@H](N)Cc1c[nH]cn1)C(=O)N[C@@H](Cc1c[nH]c2ccccc12)C(=O)N[C@H](Cc1ccccc1)C(=O)N[C@@H](CCCCN)C(N)=O` [His-D^βNal-Ala-Trp-DPhe-Lys-NH₂] (HELM PEPTIDE1{H.[O=C([C@@H](Cc1ccc2ccccc2c1)N[*:1])[*:2]].A.W.[dF].K.[am]}$$$$V2.0), for which the “activity compared with peptides having another residue in the A₂ position” value is “more active than compounds having DTrp, D^αNal, DAsp, and DCys (SMe) in the A₂ position”.
